According to ChEMBL document CHEMBL5512610, “Drug discovery and optimization based on the co-crystal structure of natural product with target” (Eur J Med Chem, 2024):

Key:
[1] = Binding affinity to actin (unknown origin) assessed as dissociation constant; parameters: species or system Homo sapiens
[2] = Cytotoxicity against HUVEC cells assessed as inhibition of cell growth incubated for 72 hrs by MTT assay; format: toxicity, cell-based; settings: human
[3] = Cytotoxicity against human ARPE-19 cells assessed as cell growth inhibition incubated for 72 hrs by MTT assay; format: toxicity, cell-based
[4] = target: T1, Cyclin-dependent kinase 9 (Homo sapiens, UniProt P50750); experiment: Inhibition of CDK9 (unknown origin)
T1 sequence (P50750 whole entry): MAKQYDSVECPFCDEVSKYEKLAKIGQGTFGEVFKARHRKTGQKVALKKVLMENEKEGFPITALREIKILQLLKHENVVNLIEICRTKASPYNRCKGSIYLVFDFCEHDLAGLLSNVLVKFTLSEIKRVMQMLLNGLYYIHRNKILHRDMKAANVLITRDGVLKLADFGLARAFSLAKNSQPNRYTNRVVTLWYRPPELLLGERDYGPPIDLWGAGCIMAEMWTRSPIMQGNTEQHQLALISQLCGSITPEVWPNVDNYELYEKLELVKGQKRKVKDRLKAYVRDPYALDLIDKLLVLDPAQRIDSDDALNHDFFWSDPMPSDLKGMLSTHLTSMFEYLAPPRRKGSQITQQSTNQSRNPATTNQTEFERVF

[5] = test system: Plasmodium falciparum; experiment: Antiplasmodial activity against Plasmodium falciparum K1 assessed as reduction in parasite growth; format: functional, organism-based
[6] = target: Cyclin-dependent kinase 2 (Homo sapiens, UniProt P24941); experiment: Inhibition of CDK2 (unknown origin)
[7] = test system: A549; experiment: Growth inhibition of human A549 cells incubated for 72 hrs by MTT assay; format: functional
[8] = target: T1, Cyclin-dependent kinase 9; experiment: Inhibition of human recombinant CDK9 (773 to 928 residues) expressed in insect cells; parameters: species or system Insect cell
[9] = test system: HepG2; experiment: Cytotoxicity against human HepG2 cells assessed as reduction in cell growth; format: functional, cell-based
[10] = Oral bioavailability in mouse; format: ADME, organism-based; settings: in vivo
[11] = test system: MRC5; experiment: Cytotoxicity against human MRC5 cells assessed as reduction in cell viability; format: functional, cell-based
[12] = test system: MRC5; experiment: Antiproliferative activity against human MRC5 cells assessed inhibition of cell growth incubated for 48 hrs by MTT assay; format: functional, cell-based; settings: MRC5, 48 h
[13] = test system: NCI-N87; experiment: Antitumor activity against human NCI-N87 cells assessed as reduction in cell growth; format: functional, cell-based
[14] = test system: Hepatitis C virus; experiment: Antiviral activity against Hepatitis C virus genotype 1b infected in human Huh-7 cells assessed as reduction in viral infection; format: functional, organism-based, Hepacivirus hominis

Work on `COCCC(=O)NC[C@H](O)[C@H](C)C(=O)NCCC[C@H]1O[C@@]2(CCC[C@@H](CC[C@@H](C)/C=C(\C)[C@@H](C)O)O2)CC[C@@H]1C` yielded a Kd [1] of 9 nM.

In the case of `C=CCNC1=C2C[C@@H](C)C[C@H](OC)[C@H](O)[C@@H](C)/C=C(\C)[C@H](OC(N)=O)[C@@H](OC)/C=C\C=C(/C)C(=O)NC(=C(c3ccccc3)C1=O)C2=O` (stereo in doubt), the IC50 at 72 h [2] is reported as > 20000 nM and the IC50 at 72 h [3] is reported as > 20000 nM.

For `Nc1nccc(-c2c[nH]c3ncccc23)n1` [MERIOLIN 1], the IC50 [4] was 10000 nM.

Work on `CC(=O)c1cccc(N[C@H]2[C@H](N)[C@](C)(NC(=O)N(C)C)[C@@](C)(O)[C@@]2(O)CO)c1` yielded an IC50 [5] of 62 nM.

Work on `Nc1nccc(-c2c[nH]c3nccc(O)c23)n1` [MERIOLIN 2] yielded an IC50 [6] of 3100 nM and an IC50 [4] of 2600 nM.

Work on `C=C[C@@H](C)CC[C@@H]1CCC[C@]2(CC[C@H](C)[C@@H](CCCNC(=O)[C@@H](C)[C@@H](O)CNC(=O)CCOC)O2)O1` yielded a Kd [1] of 43 nM and a GI50 [7] of 15100 nM.

For `C=CCNC1=C2C[C@@H](C)C[C@H](OC)[C@H](O)[C@@H](C)/C=C(\C)[C@H](OC(N)=O)[C@@H](OC)/C=C\C=C(/C)C(=O)NC(=C(C)C1=O)C2=O` (stereo in doubt), the IC50 at 72 h [2] was > 20000 nM and the IC50 at 72 h [3] was > 20000 nM.

`Nc1nccc(-c2c3cccnc3n3c(N)nccc23)n1` gave an IC50 [8] of 26 nM.

For `CC[C@]1(NC(N)=O)[C@@H](N)[C@H](Nc2cccc(C(C)=O)c2)[C@](O)(COC(=O)c2c(C)cccc2O)[C@]1(C)O`, the IC50 [9] was > 9500 nM.

With `CC(=O)N(C)[C@H](C(=O)N1C[C@H](C)C[C@H]1C(=O)N(C)[C@@H]1C(=O)N[C@@H](CC(C)C)C(=O)N2C[C@H](C)C[C@H]2C(=O)N[C@@H](CC(C)C)C(=O)N(C)[C@@H](C(C)C)C(=O)N2CC(C3CCCCC3)C[C@H]2C(=O)N(C)[C@H](CC(C)C)C(=O)NCC(=O)O[C@@H]1C)C(C)C` (stereo partly drawn) the bioavailability [10] was 89%.

For `CC[C@]1(NC(=O)N(C)C)[C@@H](N)[C@H](Nc2cccc(C(C)=O)c2)[C@](O)(CO)[C@]1(C)O`, the IC50 [11] was 5.6 nM.

In the case of `CC[C@]1(NC(N)=O)[C@@H](N)[C@H](Nc2cccc(C(C)=O)c2)[C@](O)(CO)[C@]1(C)O`, the IC50 [9] is reported as > 5600 nM.

In the case of `CO[C@H]1/C=C\C=C(/C)C(=O)NC2=C(C)C(=O)C(NCCN(C)C)=C(C[C@@H](C)C[C@H](OC)[C@H](O)[C@@H](C)/C=C(\C)[C@@H]1OC(N)=O)C2=O` (stereo in doubt), the IC50 at 72 h [2] is reported as > 20000 nM and the IC50 at 72 h [3] is reported as > 20000 nM.

`C/C=C/C(=O)C[C@H]1CC[C@H](C)[C@H](CC(=O)NC[C@H](O)[C@H](C)C(=O)NCCC[C@H]2O[C@@]3(CCC[C@@H](CC[C@@H](C)/C=C(\C)[C@@H](C)O)O3)CC[C@@H]2C)O1` gave a Kd [1] of 7 nM and a GI50 [7] of 20.4 nM.

With `CC(=O)c1cccc(N[C@H]2[C@H](N)[C@@](NC(=O)N(C)C)([C@H](C)O)[C@@](C)(O)[C@@]2(O)COC(=O)c2c(C)cccc2O)c1` [PACTAMYCIN] the IC50 [12] was 95 nM, the IC50 [5] was 187 nM and the IC50 [9] was 86 nM.

`CC(=O)N(C)[C@H](C(=O)N1C[C@H](C)C[C@H]1C(=O)N(C)[C@@H]1C(=O)N[C@@H](CC(C)C)C(=O)N2C[C@H](C)C[C@H]2C(=O)N[C@@H](CC(C)C)C(=O)N(C)[C@@H](C(C)C)C(=O)N2CC(C)C[C@H]2C(=O)N(C)[C@H](CC(C)C)C(=O)NCC(=O)O[C@@H]1C)C(C)C` (stereo partly drawn) gave a bioavailability [10] of 47%.

`CO[C@H]1/C=C\C=C(/C)C(=O)NC2=CC(=O)C(NCCN(C)C)=C(C[C@@H](C)C[C@H](OC)[C@H](O)[C@@H](C)/C=C(\C)[C@@H]1OC(N)=O)C2=O` (stereo in doubt) [ALVESPIMYCIN] gave an EC50 [13] of 62 nM.

For `CC[C@H]1C[C@H](C)[C@@]2(NC1=O)O[C@@H](C[C@H](O)[C@@H](C)CC/C=C/C=C(\C)[C@@H]1C/C=C/C=C/[C@H](O)[C@H](C)[C@@H](O)[C@@H](CCC(C)=O)C(=O)N[C@@H](C(C)C)C(=O)N[C@@H](Cc3cccc(O)c3)C(=O)N3CCC[C@H](N3)C(=O)O1)[C@H](C)[C@H](O)[C@@H]2C` [SANGLIFEHRIN A], the EC50 [14] was 87 nM.

`C=CCC1CC[C@H](C)[C@H](CC(=O)NC[C@H](O)[C@H](C)C(=O)NCCC[C@H]2O[C@@]3(CCC[C@@H](CC[C@H](C)C=C)O3)CC[C@@H]2C)O1` (stereo partly drawn) showed a Kd [1] of 39 nM and a GI50 [7] of 11200 nM.

Compound `C=C[C@H](C)CCC[C@@H]1CCC[C@]2(CC[C@H](C)[C@@H](CCCNC(=O)[C@@H](C)[C@@H](O)CNC(=O)C[C@@H]3OC(CC(=O)/C=C/C)CC[C@@H]3C)O2)O1` (stereo partly drawn) has a Kd [1] of 70 nM and a GI50 [7] of 87.1 nM.

For `CC(=O)c1cccc(N[C@H]2[C@H](N)[C@](C)(NC(=O)N(C)C)[C@@](C)(O)[C@@]2(O)COC(=O)c2c(C)cccc2O)c1`, the IC50 [5] was 77 nM.

`C=CCC[C@@H]1CCC[C@]2(CC[C@H](C)[C@@H](CCCNC(=O)[C@@H](C)[C@@H](O)CNC(=O)C[C@@H]3OC(CC(=O)/C=C/C)CC[C@@H]3C)O2)O1` (stereo partly drawn) gave a Kd [1] of 1500 nM and a GI50 [7] of 323 nM.
